# In US20170296498A1, “Rapid Relief of Motor Fluctuations in Parkinson's Disease” (Civitas Therapeutics, Inc., priority 2014, published 2017):
# System: Parkinson's disease patients in the OFF state
# Assay: Phase 2 study of pulmonary levodopa in PD patients: plasma levodopa concentration vs UPDRS
# Type: in vivo, human
# Details: FIG. 8, plasma concentration vs UPDRS
# Experimental: The twenty four PD (24) patients treated in this study underwent serial evaluations of L-dopa plasma levels, motor response, and safety at each visit. The patients were administered the study drug in the OFF state with the serial evaluations starting prior to dosing and continuing for up to 180 minutes post-dose. Motor function was measured using a tapping test, the Unified Parkinson's Disease Rating Scale Part III (UPDRS III), and subjective evaluation of “meaningful” ON and OFF. Safety parameters monitored included pulmonary function, clinical laboratory data, EGCs, and vital signs (blood pressure, heart rate, and orthostatic blood pressure). This study was designed to measure the time, magnitude, and durability of pulmonary levodopa's effect on motor function, to evaluate the safety and tolerability of pulmonary levodopa in Parkinson's disease patients.
# In FIG. 8, patient's plasma levodopa concentrations are being compared to UPDRS scores. UPDRS is a standard test for Parkinson's disease patients to test their response to drug treatment and their disease progression. […] The different baseline levels of levodopa plasma relate to the fact that each patient has a different effective dose or effective concentration for the levodopa to have an effect on each patient. […]
structure (smiles),measurement,value
"N[C@@H](Cc1ccc(O)c(O)c1)C(=O)O [L-Dopa, levodopa]",levodopa plasma concentration difference between being in the off state and in the on state,200 to 400 ng/mL
